Reference: publication PMC8156934, “Photophysical Study and Biological Applications of Synthetic Chalcone-Based Fluorescent Dyes” (Molecules, 2021)
≈ marks a conversion by molar mass, not a printed value. Read-outs that look alike come from different tables or passages of the source.

Legend:
S. aureus 1466 = assay: Antibacterial activity test (MIC, MBC, growth curve); type: cell-based, Staphylococcus aureus; conditions: for MBC / MIC: Staphylococcus aureus
Experimental: (§1) All bacteria strains were obtained from the Thailand Institute of Scientific and Technological Research (TISTR). The antibacterial activity of chalcones 3a–f was determined by the minimal inhibitory concentration (MIC) and the minimal bactericidal concentration (MBC) against the Gram-positive (S. aureus 1466, TISTR 1466) and Gram-negative (E.coli 780, TISTR 780) bacteria. The stocks of chalcones 3a–f (0.60 mg/mL) were serially diluted in Muller–Hinton (MH) broth to obtain concentrations in the range of 250–1000 µM. The solutions of chalcones 3a–f (100 µL) at different concentrations were added in the culture of the tested bacteria (100 µL) at a concentration of 1 × 10^6 colony-forming units/mL (CFU/mL) in MH broth at 37 °C with shaking at 80 rpm. The bacterial numbers were determined by measuring the optical density at 600 nm by a UV–Vis spectrometer. […] To determine the MBC values, the bacterial cultures (10 µL) containing the solutions of chalcones 3a–f at MIC and three higher concentrations were dropped on MH agar plates.

HEK-293 = assay: Cell viability MTT assay, normal cells; type: cell-based; conditions: Homo sapiens
Experimental: (§2) For fluorescence imaging of living cells, human embryonic kidney 293 (HEK-293, ATCC) and human hepatoma cancer cell (HepG2, ATCC) were cultured in Dulbecco′s Modified Eagle′s Medium (DMEM, HyClone) supplemented with 10% Fetal Bovine Serum (FBS, Gibco, Carlsbad, CA, USA) and 1% Penicillin/Streptomycin Solution 100X (Corning, Corning, NY, USA). All cells were cultured in a humidified incubator at 37 °C with 5% CO2. HEK-293 and HepG2 cells, approximately 1 × 10^4 cells, were seeded on 8-well chambered cover glasses (LabTek, Nunc, Carlsbad, CA, USA) and incubated in complete medium for 24 h. After that, the cells were treated with 5 μM stock solutions of 3a–f in DMSO/cell culture medium containing 10% FBS (0.25% DMSO), for 0, 1, 3, and 6 h. Then, the cells were washed twice with 0.01 M PBS before being visualized under a Laser-Scanning Confocal Microscope (Nikon A1Rsi) with a 60× oil immersion objective lens and living cell workstation with the excitation channel at 488 nm.
(§3) The cells were seeded on a 96-well plate, approximately 7 × 10^3 cells per well, and incubated in complete medium for 24 h. After that, the cells were treated with 0, 1, 5, 10, 20, and 50 μM of chalcones 3a–f, and culturing continued for 24 h. After incubation, the cells were washed three times with 10 mM PBS and treated with […] of methylthiazolyldiphenyl-tetrazolium bromide (MTT reagent, 0.5 mg mL^−1, Sigma-Aldrich, St. Louis, MO, USA) for 2–3 h. After medium removal, DMSO was added to dissolve the formazan product, and cell viability was determined by UV–Vis absorption of the resulting formazan at a wavelength of 560 nm in a microplate reader (BMG Labtech/SPECTROstar Nano, Ortenberg, Germany).

[1] = pH effect on fluorescence emission; type: physicochemical; conditions: 3% Tween 80
Experimental: Chalcones 3a–f (2 µM) were dissolved in commercial pH 1–12 buffers purchased from Merck (St. Louis, MO, USA) (glycine/NaCl/HCl for pH 1, citric acid/NaOH/HCl for pH 2–6, Na2HPO4/KH2PO4 for pH 7, boric acid/ KCl/NaOH for pH 8–11, Na3PO4/NaOH for pH 12) in the presence of Tween 80 (3% w/w). The actual pH values of the final buffer solutions were measured by a pH meter. The resulting solutions were examined by a Spectrofluorometer (PerkinElmer LS55) at the maximum absorbance wavelength of each compound.

[2] = Photophysical properties (UV–Vis absorption and fluorescence spectra); type: physicochemical; conditions: for λabs absorption maximum wavelength / ∆λ stokes shifts (λem − λabs) / λem emission maximum wavelength / Φf fluorescence quantum yields: 2 µM; for λem emission maximum wavelength: excited at the maximum absorption wavelength; for Φf fluorescence quantum yields: n = 3, relative to fluorescein in 0.1 M NaOH
Experimental: All UV–Vis absorption and fluorescence spectra were recorded on a UV–Vis Spectrophotometer (Agilent Technologies Cary 300, Santa Clara, CA, USA) and a Spectrofluorometer (PerkinElmer LS55, Waltham, MA, USA), respectively. In both experiments, the stock solutions of chalcones 3a–f were prepared as 0.5 mM in DMSO. The appropriate amount of the stock solution was added to DMSO, MeOH, and 0.01 M PBS buffer (pH 7.4) with 3% Tween 80 (3 mL) to obtain the final concentration of 2 µM in the testing solutions. For fluorescence experiments, the emission spectra were recorded at the maximum absorbance wavelength of each compound. The fluorescent quantum yields (Φf) were calculated relative to fluorescein in 0.1 M NaOH as a standard (Φf = 0.95).

[3] = Photo-stability test (photobleaching under 250 W blue light); type: physicochemical; conditions: DMSO, 250 W blue light (380–500 nm), after 30 min irradiation
Experimental: Chalcones 3a–f were dissolved in DMSO at the final concentration of 1 × 10^−6 M for measuring absorption and emission intensity. Then, 3a–f were irradiated at 250 W (blue-lamp) at a distance of 75 cm. The UV–Visible absorption and fluorescence spectra of the solutions were measured at different time points including 0, 1, 5, 10, 15, 20, and 30 min. Photo-stability was reported in terms of photobleaching absorption and emission (%) calculated from the change of absorption and emission intensity at the absorption and emission maxima before and after irradiation.

E. coli 780 = assay: Antibacterial activity test (MIC, MBC, growth curve); type: cell-based, Escherichia coli; conditions: for MBC / MIC: Escherichia coli
Experimental: as §1

HepG2 = assay: Cell viability MTT assay, cancer cells; type: cell-based; conditions: Homo sapiens, HepG2, 24 h
Experimental: as §2, §3

[4] = S. aureus 1466, mean ± SD of three independent experiments, read-out: MBC
[5] = S. aureus 1466, mean ± SD of three independent experiments, read-out: MIC
[6] = HEK293, HEK-293, 24 h, MTT, read-out: IC50
[7] = E. coli 780, mean ± SD of three independent experiments, read-out: MBC
[8] = E. coli 780, mean ± SD of three independent experiments, read-out: MIC

Compound	MBC (S. aureus 1466; [4]) [µM]	MIC (S. aureus 1466; [5]) [µM]	IC50 (HEK-293; [6]) [µM]	ε molar absorptivity ([2]; DMSO) [M⁻¹ cm⁻¹]	λabs absorption maximum wavelength ([2]; DMSO) [nm]	∆λ stokes shifts (λem − λabs) ([2]; DMSO) [nm]	λem emission maximum wavelength ([2]; DMSO) [nm]	Φf fluorescence quantum yields ([2]; DMSO)	ε molar absorptivity ([2]; MeOH) [M⁻¹ cm⁻¹]	λabs absorption maximum wavelength ([2]; MeOH) [nm]	∆λ stokes shifts (λem − λabs) ([2]; MeOH) [nm]	λem emission maximum wavelength ([2]; MeOH) [nm]	Φf fluorescence quantum yields ([2]; MeOH)	ε molar absorptivity ([2]; PBS (3%w/w tween 80)) [M⁻¹ cm⁻¹]	λabs absorption maximum wavelength ([2]; PBS (3%w/w tween 80)) [nm]	∆λ stokes shifts (λem − λabs) ([2]; PBS (3%w/w tween 80)) [nm]	λem emission maximum wavelength ([2]; PBS (3%w/w tween 80)) [nm]	Φf fluorescence quantum yields ([2]; PBS (3%w/w tween 80))	% photobleaching of absorbance [3] [%]	% photobleaching of fluorescence [3] [%]	further results
COc1ccc(C(=O)/C=C/c2ccc(N(C)C)cc2)cc1 [3a]	1000 ± 0.09 (≈ 281 µg/mL)	375 ± 0.03 (≈ 106 µg/mL)	> 100	46000	417	115	532	0.69 ± 0.04	30000	417	132	549	0.013 ± 0.006	33000	416	113	529	0.15 ± 0.02	50	25	fluorescence emission ([1]; pH range from 2 to 12, 2 µM): Higher emission peaks; MBC (E. coli 780; [7]): 750 ± 0.02 µM (≈ 211 µg/mL); MIC (E. coli 780; [8]): 375 ± 0.01 µM (≈ 106 µg/mL)
CN(C)c1ccc(/C=C/C(=O)c2cccs2)cc1 [3b]	1000 ± 0.01 (≈ 257 µg/mL)	375 ± 0.01 (≈ 96.5 µg/mL)	> 100	31000	431	129	560	0.34 ± 0.04	29000	428	139	567	0.012 ± 0.007	37000	427	93	520	0.11 ± 0.02	26	43	fluorescence emission ([1]; pH range from 2 to 12, 2 µM): Higher emission peaks; IC50 (HepG2; MTT, read-out: IC50): 45 µM; MBC (E. coli 780; [7]): 750 ± 0.02 µM (≈ 193 µg/mL); MIC (E. coli 780; [8]): 250 ± 0.02 µM (≈ 64.3 µg/mL)
CN(C)c1ccc(/C=C/C(=O)c2ccc(O)cc2)cc1 [3c]	–	–	–	10000	413	107	520	0.61 ± 0.04	10000	414	132	546	0.017 ± 0.011	13000	411	115	526	0.11 ± 0.02	37	50	MBC (S. aureus 1466; 1466): 1000 ± 0.01 µM (≈ 267 µg/mL); MIC (S. aureus 1466; 1466): 375 ± 0.01 µM (≈ 100 µg/mL); IC50 (HEK-293; HEK293, 24 h): > 100 µM; fluorescence emission ([1]; basic conditions (pH 9–12), 2 µM): reduced emission signals; IC50 (HepG2): 100 µM; MBC (E. coli 780; 780): 750 ± 0.01 µM (≈ 200 µg/mL); MIC (E. coli 780; 780): 250 ± 0.01 µM (≈ 66.8 µg/mL)
CN(C)c1ccc(/C=C/C(=O)c2ccc(N(C)C)cc2)cc1 [3d]	1000 ± 0.01 (≈ 294 µg/mL)	250 ± 0.01 (≈ 73.6 µg/mL)	> 100	46000	422	94	516	0.10 ± 0.02	37000	423	132	555	0.024 ± 0.015	44000	422	120	542	0.17 ± 0.03	51	30	bacterial growth (OD600 growth curve) (S. aureus 1466; S. aureus 1466, increasing concentration, 24 h): significantly inhibited; fluorescence emission ([1]; pH range from 2 to 12, 2 µM): Higher emission peaks; IC50 (HepG2; MTT, read-out: IC50): 56 µM; bacterial growth (OD600 growth curve) (E. coli 780; E. coli 780, increasing concentration, 24 h): significantly inhibited; MBC (E. coli 780; [7]): 375 ± 0.01 µM (≈ 110 µg/mL); MIC (E. coli 780; [8]): 250 ± 0.01 µM (≈ 73.6 µg/mL)
